What was measured:
[1] = tested on: methicillin-resistant Staphylococcus aureus (MRSA); assay: In vitro antibacterial activity, standard agar dilution method, MRSA; format: cell-based; settings: clinical strains
Excerpt: (§1) Strains for test: methicillin-resistant Staphylococcus aureus (MRSA), methicillin-sensitive Staphylococcus aureus (MSSA), methicillin-resistant Staphylococcus epidermidis (MRSE), methicillin-sensitive Staphylococcus […] (MSSE), Enterococcus faecium, Enterococcus faecalis, streptococcus pneumoniae. Obtained from: Qianfoshan Hospital, First People's Hospital of Yunnan Province, Renji Hospital of Shanghai, People's Hospital of Jilin Province, Southwest Hospital.
(§2) Compounds 1, 3, 4, 6, 8, 11 of the present invention, prepared according to the process in each of the examples.
(§3) Control pharmaceutical: linezolid.
(§4) standard agar dilution method, reference was made to National Committee for Clinical Laboratory Standards. 2006. Methods for Dilution Antimicrobial Susceptibility Tests for Bacteria That Grow Aerobically, Approved Standard—Seventh Edition M7-A7.

[2] = tested on: methicillin-resistant Staphylococcus epidermidis (MRSE); assay: In vitro antibacterial activity, standard agar dilution method, MRSE; format: cell-based; settings: clinical strains
Excerpt: as §1, §2, §3, §4

[3] = tested on: methicillin-sensitive Staphylococcus aureus (MSSA); assay: In vitro antibacterial activity, standard agar dilution method, MSSA; format: cell-based; settings: clinical strains
Excerpt: as §1, §2, §3, §4

[4] = tested on: methicillin-sensitive Staphylococcus aureus (MSSE); assay: In vitro antibacterial activity, standard agar dilution method, MSSE; format: cell-based, Staphylococcus epidermidis; settings: clinical strains
Excerpt: as §1, §2, §3, §4

Enterococcus faecalis = assay: In vitro antibacterial activity, standard agar dilution method, Enterococcus faecalis; format: cell-based; settings: clinical strains
Excerpt: as §1, §2, §3, §4

Enterococcus faecium = assay: In vitro antibacterial activity, standard agar dilution method, Enterococcus faecium; format: cell-based; settings: clinical strains
Excerpt: as §1, §2, §3, §4

streptococcus pneumoniae = assay: In vitro antibacterial activity, standard agar dilution method, Streptococcus pneumoniae; format: cell-based; settings: clinical strains
Excerpt: as §1, §2, §3, §4

[5] = tested on: methicillin-sensitive (MSSE); assay: In vitro antibacterial activity, standard agar dilution method, MSSE; format: cell-based, Staphylococcus epidermidis; settings: clinical strains
Excerpt: as §1, §2, §3, §4

[6] = In vivo pharmacokinetics test on rat, I.V (intravenous push); settings: male SD rat, 0.75 mg/kg, plasma, Compound 3 itself detected
Method: (§5) Compounds 2, 3, 5, 7, 9, prepared by the processes in the examples, dissolved in physiological saline.
(§6) Administration is performed as described in the table below, fasting without water deprivation for 16 hours before administration, providing food 4 hours after the administration.
I.V representing administration by intravenous push
(§7) I.V: blood collection was carried out according to the time points in the table below. At each time point about 100 μl whole blood was collected into a heparin sodium anticoagulation tube, centrifuged at 4° C. in a low temperature high speed centrifuge at 8000 rpm for 6 minutes. Plasma was separated and stored frozen in a freezer at −80° C.
(§8) Compound 5, 7, 9: 20 μl plasma was each taken and added into 100 μl of Torezolid (TR-700) solution in methanol at a concentration of 50 ng/ml, mixed under vortex for 5 minutes, centrifuged at 12000 rpm for 5 minutes; 100 μl of supernatant was taken and added into 100 μl water, mixed under vortex for 2 minutes, and analyzed by using LC-MS/MS.
(§9) Compound 2: 20 μl plasma was taken and added into 100 μl of Radezolid solution in methanol at a concentration of 50 ng/ml, mixed under vortex for 3 minutes, centrifuged at 12000 rpm for 5 minutes; 100 μl of supernatant was taken and added into 100 μl water, mixed under vortex for 2 minutes, and analyzed by using LC-MS/MS.
(§10) Compound 3: 20 μl plasma was taken and added into 800 μl of KBP-3957 methyl tert-butyl ether solution at a concentration of 10 ng/ml, mixed under vortex for 10 minutes, centrifuged at 12000 rpm for 5 minutes; 400 μl of supernatant was taken and added into a 96-well plate, purged to dryness by nitrogen, 200 μl of methanol:water (7:3) solution was added, mixed under vortex for 10 minutes, and analyzed by using LC-MS/MS.
(§11) Compound 2 is the prodrug of compound 1. Compound 5 is the prodrug of compound 4. Compound 7 is the prodrug of compound 6. Compound 9 is the prodrug of compound 8. Thus, PK data of active compounds, i.e. compounds 1, 4, 6, 8, were detected after administration, respectively.

[7] = In vivo pharmacokinetics test on rat, P.O (lavage); settings: plasma, po, male SD rat, Compound 3 itself detected
Method: as §5, §6
P.O representing administration by lavage
as §7, §8, §9, §10, §11
Calculation Formula Absolute bioavailability F %=[AUC]INF(PO)*Dose(IV)/[AUC]INF(IV)*Dose(PO)

| SMILES | antibacterial activity MRSA [1] [µg/mL] | antibacterial activity MRSE [2] [µg/mL] | antibacterial activity MSSA [3] [µg/mL] | antibacterial activity MSSE [4] [µg/mL] | antibacterial activity Enterococcus faecalis (Enterococcus faecalis) [µg/mL] | antibacterial activity Enterococcus faecium (Enterococcus faecium) [µg/mL] | antibacterial activity Streptococcus pneumoniae (streptococcus pneumoniae) [µg/mL] | antibacterial activity MSSE [5] [µg/mL] | AUC(0-inf) [6] [ng·h/mL] | clearance [6] [mL/min/kg] | half-life [6] [h] | Vd ([6]; read-out: Vss) [L/kg] | bioavailability ([7]; P.O 1 mg/kg vs I.V 0.75 mg/kg, read-out: F % (absolute bioavailability)) [%] | AUC(0-inf) ([7]; P.O, 1 mg/kg) [ng·h/mL] | Cmax ([7]; P.O, 1 mg/kg) [ng/mL] | Tmax ([7]; P.O, 1 mg/kg) [h] | half-life ([7]; P.O, 1 mg/kg) [h] |
| --- | --- | --- | --- | --- | --- | --- | --- | --- | --- | --- | --- | --- | --- | --- | --- | --- | --- |
| CN(c1ccc(-c2ccc(N3C[C@H](CO)OC3=O)cc2F)cn1)c1nnnn1C [Compound 6, (R)-3-(3-fluoro-4-(6-(methyl(1-methyl-1H-tetrazol-5-yl)amino)pyridin-3-yl)phenyl)-5-(hydroxylmethyl)oxazolidin-2-one] | 0.5 | 0.5 | 0.5 | 0.5 | 1 | 1 | 0.5 |  |  |  |  |  |  |  |  |  |  |
| Cn1cc(Nc2ccc(-c3ccc(N4C[C@H](CO)OC4=O)cc3F)cn2)nn1 [Compound 11, (R)-3-(3-fluoro-4-(6-((1-methyl-1H-1,2,3-triazol-4-yl)amino)pyridin-3-yl)phenyl)-5-(hydroxylmethyl)oxazolidin-2-one] | 1 | 1 | 1 | 0.5 | 2 | 2 | 1 |  |  |  |  |  |  |  |  |  |  |
| Cn1nnnc1Nc1ccc(-c2ccc(N3C[C@H](CO)OC3=O)cc2F)cn1 [Compound 4, (R)-3-(3-fluoro-4-(6-((1-methyl-1H-tetrazol-5-yl)amino)pyridin-3-yl)phenyl)-5-(hydroxylmethyl)oxazolidin-2-one] | 0.25 | 0.125 | 0.25 | 0.125 | 0.25 | 0.25 | 1 |  |  |  |  |  |  |  |  |  |  |
| CN(c1ccc(-c2ccc(N3C[C@H](CO)OC3=O)cc2F)cn1)c1nnn(C)n1 [Compound 8, (R)-3-(3-fluoro-4-(6-(methyl(2-methyl-2H-tetrazol-5-yl)amino)pyridin-3-yl)phenyl)-5-(hydroxylmethyl)oxazolidin-2-one] | 1 | 0.5 | 1 | 0.5 | 1 | 1 | 0.5 |  |  |  |  |  |  |  |  |  |  |
| CC(=O)NC[C@H]1CN(c2ccc(-c3ccc(Nc4nnn(C)n4)nc3)c(F)c2)C(=O)O1 [Compound 3, (S)-N-((3-(3-fluoro-4-(6-((2-methyl-2H-tetrazol-5-yl)amino)pyridin-3-yl)phenyl)-2-oxooxazolidin-5-yl)methyl)acetamide] | 1 | 0.25 | 0.5 |  | 0.25 | 0.25 | 0.25 | 0.25 | 11600 | 1.17 | 5.29 | 0.37 | 45.5 | 7030 | 614 | 4 | 5.55 |
| CC(=O)NC[C@H]1CN(c2ccc(N3CCOCC3)c(F)c2)C(=O)O1 [linezolid, Linezolid, reference compound] | 4 | 2 | 2 | 2 | 4 | 4 | 2 |  |  |  |  |  |  |  |  |  |  |
| Cn1nnc(Nc2ccc(-c3ccc(N4C[C@H](CO)OC4=O)cc3F)cn2)n1 [Compound 1, (R)-3-(3-fluoro-4-(6-((2-methyl-2H-tetrazol-5-yl)amino)pyridin-3-yl)phenyl)-5-(hydroxylmethyl)oxazolidin-2-one] | 1 | 0.5 | 1 | 0.5 | 1 | 1 | 0.5 |  |  |  |  |  |  |  |  |  |  |
